Assay results taken from patent US20170172945A1, “METHODS OF TREATING BREAST CANCER” (Mitchell Woods Pharmaceuticals, Inc., priority 2014, published 2017).

Key:
Assay type in all cases: cell-based, Human
[1] = tested on: MCF-7 cells; experiment: [3H]-thymidine incorporation assay in MCF-7 cells; conditions: serum-starved, 24 hours
Experimental: (§1) Cells were seeded in 12-well plates at approximately 50,000 cells/well and incubated at 37° C. After 24 hours, the wells were rinsed with PBS and replaced with serum-free medium containing the appropriate concentration of the test compounds. After another 24-hour incubation at 37° C., 1 μCi of [^3H]-thymidine was added to each well and incubated at 37° C. for 16 hours. […] The lysate was then mixed with 3 mL of liquid scintillation cocktail (Beckman Coulter, Inc., Brea, Calif.), and radioactivity was measured by liquid scintillation counting using Beckman Coulter LS6000IC Scintillation Counter. Data are shown as CPM incorporated compared to the control cells.
(§2) CF-7 cells and MDA-MB-231 cells were seeded out on E-Plates and allowed to settle. Cells were stimulated with MNF. Cellular proliferation and adherence was measured every 15 minutes using xCELLigence RTCA station. The serum-starved cells were incubated with various amounts of (R,R′)-MNF concentrations for 24 hours and the levels of [3H]thymidine incorporation were measured.

[2] = tested on: MDA-MB-231 cells; experiment: [3H]-thymidine incorporation assay in MDA-MB-231 cells; conditions: serum-starved, 24 hours
Experimental: as §1, §2

[3] = tested on: ERK; experiment: basal phosphorylation levels of ERK in MCF-7 cells; conditions: serum starved for 3 hours, compound for 15 minutes
Experimental: (§3) Levels of ERK1/2 and its phosphorylated forms were determined using PathScan ELISA kits according to manufacturer's protocol (Perkin Elmer Alphascreen Surefire ERK1/2 assay kit, cat no. TGRES500).
(§4) (R,R′)-MNF decreased basal phosphorylation levels of ERK. MCF-7 and MDA-MB-231 cells were serum starved for 3 hours and subjected to compound of interest or vehicle for 15 minutes. The levels of phosphorylated ERK were determined in MNF-treated MCF-7 and MDA-MB-231 cells.

[4] = tested on: ERK; experiment: basal phosphorylation levels of ERK in MDA-MB-231 cells; conditions: serum starved for 3 hours, compound for 15 minutes
Experimental: as §3, §4

[5] = tested on: MCF-7 cells; experiment: cell cycle analysis in MCF-7 cells
Experimental: (§5) Cell cycle distributions were performed by flow cytometry on propidium iodide-stained nuclei prepared by the NEVI technique. DNA histograms of at least 10,000 cells acquired on a Becton-Dickinson FACScanto II (BD Biosciences, San Jose, Calif.) were deconvoluted using the Multicycle program (Phoenix Flow Systems) for estimates of the percentage of cells in the G0/1, S, and G2+M phases of the cell cycle. Debris and doublets were removed from the analysis by software algorithms.

[6] = tested on: MDA-MB-231 cells; experiment: cell cycle analysis in MDA-MB-231 cells
Experimental: as §5

[7] = tested on: Cyclin D1; experiment: expression of Cyclin D1 in MDA-MB-231 cells
Experimental: (§6) Cells were lysed with RIPA buffer containing EGTA and EDTA (Boston BioProducts, Ashland, Mass.). The lysis buffer was mixed with a protease inhibitor cocktail (Sigma-Aldrich). Protein concentrations were measured using the bicinchoninic acid reagent (Thermo-Pierce Biotechnology, Inc., Rockford, Ill.). Proteins (20 μg/well) were separated on 4-12% precast gels (Invitrogen, Carlsbad, Calif.) using SDS-polyacrylamide gel electrophoresis under reducing conditions and were electrophoretically transferred onto polyvinylidene fluoride membrane (Invitrogen). Western blots were performed according to standard methods. The visualization of immunoreactive bands was performed using the ECL Plus Western Blotting Detection System (GE Healthcare, NJ) and their quantification was done by volume densitometry using Image J software and normalization to β-actin. The primary antibody for β2-APv was obtained from Enzo Life Sciences, Inc. (Cat. # AD 1-905-742-100, Farmingdale, N.Y.); rabbit anti-phospho-Akt (Ser-473), phospho-ERK1/2, total Akt and total ERK2 were from Cell Signaling Technology (Beverly, Mass.), and anti-P-actin was from Abeam (Cambridge, Mass.). The antibodies were used at a dilution recommended by the manufacturer.
(§7) The effect of MNF on expression of the cell cycle regulatory proteins Cyclin D1 and Cyclin B1 in MCF-7 cells and MDA-MB-231 cells was evaluated. […]

[8] = tested on: Cyclin D1; experiment: expression of Cyclin D1 in MCF-7 cells
Experimental: as §6, §7

[9] = tested on: Cyclin B1; experiment: expression of Cyclin B1 in MCF-7 cells
Experimental: as §6, §7

[10] = tested on: Multidrug resistance protein (Mdr); experiment: expression of Multidrug resistance protein (Mdr) in MCF-7 cells
Text: As shown therein, MNF reduces the expression of Multidrug resistance protein (Mdr) in MCF-7 cells.

[11] = tested on: MCF-7 cells; experiment: proliferation of MCF-7 cells (xCELLigence RTCA)
Experimental: as §2, with “measured. MNF inhibited the incorporation of radiolabelled thymidine in both CF-7 cells and MDA-MB-231 cells.” for “measured.”

[12] = tested on: MDA-MB-231 cells; experiment: proliferation of MDA-MB-231 cells (xCELLigence RTCA)
Experimental: as §2, with “measured. MNF inhibited the incorporation of radiolabelled thymidine in both CF-7 cells and MDA-MB-231 cells.” for “measured.”

Compound | blocking of the inhibitory effect of MNF on [3H]thymidine incorporation ([1]; with MNF) | blocking of the inhibitory effect of MNF on [3H]thymidine incorporation ([2]; with MNF) | basal phosphorylation levels of ERK [3] | basal phosphorylation levels of ERK [4] | arrest of the cell cycle [5] | arrest of the cell cycle [6] | expression of Cyclin D1 [7] | expression of Cyclin D1 [8] | expression of Cyclin B1 [9] | expression of Multidrug resistance protein (Mdr) [10] | growth of cancer cells [11] | proliferation [11] | growth of cancer cells ([12]; MDA-MB-231 cells) | proliferation ([12]; MDA-MB-231 cells) | sensitivity to MNF compared with MCF-7 cancer cells ([12]; MDA-MB-231 cells vs MCF-7 cells) | levels of [3H]thymidine incorporation [1] | levels of [3H]thymidine incorporation [2]
Cc1ccc(OCC(O)C(C)NC(C)C)c2c1CCC2 (centres unmarked) [ICI 118,551, 3-(isopropylamino)-1-[(7-methyl-4-indanyl)oxy]butan-2-ol, reference compound] | not | not | – | – | – | – | – | – | – | – | – | – | – | – | – | – | –
COc1ccc(C[C@@H](C)NC[C@H](O)c2cc(O)cc(O)c2)c2ccccc12 [MNF, (R,R′)-4′-methoxy-1-naphthylfenoterol] | – | – | decreased | decreased | G2/M phase arrested cell population was increased | arrested at G1/S phase | reduced | unchanged | reduced | reduces | inhibit | inhibit | inhibit | inhibit | significantly more sensitive | inhibited | inhibited
